Molecular target: T1, human ADRA2B receptor (Homo sapiens, UniProt P18089)
T1 construct: expressed in transfected cells
T1 sequence (P18089 1-450): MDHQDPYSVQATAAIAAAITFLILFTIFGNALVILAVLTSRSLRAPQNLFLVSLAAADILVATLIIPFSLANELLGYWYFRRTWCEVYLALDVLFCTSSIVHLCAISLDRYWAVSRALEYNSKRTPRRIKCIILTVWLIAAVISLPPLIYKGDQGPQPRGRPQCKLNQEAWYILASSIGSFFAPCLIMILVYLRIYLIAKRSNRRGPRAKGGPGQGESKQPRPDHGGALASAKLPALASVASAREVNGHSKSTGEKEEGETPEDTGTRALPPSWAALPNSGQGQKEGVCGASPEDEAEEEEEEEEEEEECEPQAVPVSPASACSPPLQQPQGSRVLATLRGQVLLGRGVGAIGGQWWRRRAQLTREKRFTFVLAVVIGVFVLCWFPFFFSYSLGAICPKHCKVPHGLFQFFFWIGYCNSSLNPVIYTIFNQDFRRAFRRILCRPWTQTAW
Assay: GTPγS agonist assay, ADRA2B receptor
Format: biochemical
Settings: read-out: GTPase - Human Alpha2B EC50
Experimental: GTP ? S Agonist Assays (ADRA2A, ADRA2B, and ADRA2C Receptors)
Membranes were prepared for GTP ? S binding assays from CHO-K1 cells stably expressing human ADRA2A, ADRA2B, or ADRA2C receptor. Briefly, cells were grown in 5-layer cell culture flasks. Cells were washed with 50 mL of PBS and then dissociated with 0.05% trypsin. Dissociated cells were then collected by centrifugation at 650×g for 8 min at 4° C. Pellets were washed again in PBS by centrifugation and resuspended in 30 mL of 20 mM HEPES, 10 mM EDTA, pH 7.4. After sitting on ice for 30 min, membranes were collected by centrifugation at 50000×g for 15 min at 4° C., resuspended in 30 mL of 20 mM HEPES, 0.1 mM EDTA, pH 7.4 and collected again by centrifugation. Pellets were then washed twice by centrifugation in 30 mL of 20 mM HEPES, pH 7.4, and stored at −80° C. until the day of the assay. On the day of the assay, pellets were thawed on ice and resuspended in 1 mL of 20 mM HEPES, pH 7.4, 10 mM MgCl2, 100 mM NaCl using dounce homogenization. Membrane protein concentration was determined by BCA protein assay (Promega, Madison, WI) according to Promega guidelines.
On the day of the assay, serial dilutions of test compounds were brought up in assay buffer (20 mM HEPES, 10 mM MgCl2, 200 mM NaCl) at 10× final assay concentration. 50 μL/well of membrane homogenates (containing 5 μg of membrane protein for ADRA2A, ADRA2B, or 7.5 μg for ADRA2C) were prepared in assay buffer supplemented with GDP at 2× final assay concentration (5 μM GDP) and dispensed into 96 well polypropylene, U-bottom Greiner plates. Then, 10 μL of compounds were added to assay plates and incubated for 10 min at room temperature. […] The binding reaction was incubated for 1 h at 37° C. Membranes in assay reactions were then transferred to GF/C filter plates (UniFilter, Perkin Elmer) and washed three times using a FilterMate Harvester (Perkin Elmer) with cold assay buffer containing no GDP. Filter plates were then dried at 40° C. overnight followed by the addition of 30 μL/well of Beta Plate Scintillation liquid. Plates were top and bottom sealed before being read on TopCount scintillation counter (Perkin Elmer, Waltham, MA).

| SMILES | EC50 [nM] |
| --- | --- |
| FC(F)Oc1cccc([C@@H](Cc2ccccn2)c2cnc[nH]2)c1 [Compound 38, 2-[(2R)-2-[3-(difluoromethoxy)phenyl]-2-(1H-imidazol-4-yl)ethyl]pyridine] | > 500 |
| Cc1cccc([C@H](Cc2ccccn2)c2cnc[nH]2)c1F [Compound 39, 2-[(2S)-2-(2-fluoro-3-methylphenyl)-2-(1H-imidazol-4-yl)ethyl] pyridine] | > 500 |
| Cc1cccc([C@@H](Cc2ccccn2)c2cnc[nH]2)c1F [Compound 40, 2-[(2R)-2-(2-fluoro-3-methylphenyl)-2-(1H-imidazol-4-yl)ethyl] pyridine] | 10 to 50 |
| c1ccc(C[C@H](c2cnc[nH]2)c2cccc3c2CCO3)nc1 [Compound 41, 2-[(2S)-2-(2,3-dihydro-1-benzofuran-4-yl)-2-(1H-imidazol-4-yl)ethyl]pyridine] | < 10 |
| c1ccc(C[C@@H](c2cnc[nH]2)c2cccc3c2CCO3)nc1 [Compound 42, 2-[(2R)-2-(2,3-dihydro-1-benzofuran-4-yl)-2-(1H-imidazol-4-yl)ethyl] pyridine] | 50 to 500 |
| c1ccc(C[C@H](c2cnc[nH]2)c2cccc3c2OCC3)nc1 [Compound 43, 2-[(2S)-2-(2,3-dihydro-1-benzofuran-7-yl)-2-(1H-imidazol-4-yl)ethyl] pyridine] | > 500 |
| c1ccc(C[C@@H](c2c[nH]cn2)c2cccc3c2OCC3)nc1 [Compound 44, 2-[(2R)-2-(2,3-dihydro-1-benzofuran-7-yl)-2-(1H-imidazol-4-yl)ethyl] pyridine] | 10 to 50 |
| c1ccc(C[C@H](c2cnc[nH]2)c2cccc3c2COC3)nc1 [Compound 45, 2-[(2S)-2-(1,3-dihydro-2-benzofuran-4-yl)-2-(1H-imidazol-4-yl)ethyl] pyridine] | > 500 |
| c1ccc(C[C@@H](c2cnc[nH]2)c2cccc3c2COC3)nc1 [Compound 46, 2-[(2R)-2-(1,3-dihydro-2-benzofuran-4-yl)-2-(1H-imidazol-4-yl)ethyl] pyridine] | > 500 |
| Cc1cccc([C@H](Cc2ccccn2)c2cnc[nH]2)c1Cl [Compound 47, 2-[(2S)-2-(2-chloro-3-methylphenyl)-2-(1H-imidazol-4-yl)ethyl] pyridine] | > 500 |
| Cc1cccc([C@@H](Cc2ccccn2)c2cnc[nH]2)c1Cl [Compound 48, 2-[(2R)-2-(2-chloro-3-methylphenyl)-2-(1H-imidazol-4-yl)ethyl]pyridine] | 10 to 50 |
| Cc1c(Cl)cccc1C(Cc1ccccn1)c1cnc[nH]1 (stereo not drawn) [Compound 49, 2-[2-(3-chloro-2-methylphenyl)-2-(1H-imidazol-4-yl)ethyl] pyridine] | 50 to 500 |
| Cc1cccc(C(Cc2ccccn2)c2cnc[nH]2)c1C (stereo not drawn) [Compound 50, 2-[2-(2,3-dimethylphenyl)-2-(1H-imidazol-5-yl)ethyl] pyridine] | > 500 |
| Cc1cccc([C@H](Cc2ccccn2)c2cnc[nH]2)c1C [Compound 51, 2-[(2S)-2-(2,3-dimethylphenyl)-2-(1H-imidazol-4-yl)ethyl] pyridine] | 50 to 500 |
| Cc1cccc([C@@H](Cc2ccccn2)c2cnc[nH]2)c1C [Compound 52, 2-[(2R)-2-(2,3-dimethylphenyl)-2-(1H-imidazol-4-yl)ethyl] pyridine] | 10 to 50 |
| COc1nccc(C[C@H](c2c[nH]cn2)c2cccc(C)c2C)n1 [Compound 53, 4-[(2S)-2-(2,3-dimethylphenyl)-2-(1H-imidazol-4-yl)ethyl]-2-methoxy-pyrimidine] | < 10 |
| COc1nccc(C[C@@H](c2cnc[nH]2)c2cccc(C)c2C)n1 [Compound 54, 4-[(2R)-2-(2,3-dimethylphenyl)-2-(1H-imidazol-4-yl)ethyl]-2-methoxy-pyrimidine] | 50 to 500 |
| Cc1cccc([C@H](Cc2cccnn2)c2cnc[nH]2)c1C [Compound 55, 3-[(2S)-2-(2,3-dimethylphenyl)-2-(1H-imidazol-4-yl)ethyl] pyridazine] | 10 to 50 |

| SMILES | EC50 [nM] |
| --- | --- |
| Cc1cccc([C@@H](Cc2cccnn2)c2cnc[nH]2)c1C [Compound 56, 3-[(2R)-2-(2,3-dimethylphenyl)-2-(1H-imidazol-4-yl)ethyl] pyridazine] | > 500 |
| c1cncc(CC(c2cnc[nH]2)c2cccc3c2CCO3)c1 (stereo not drawn) [Compound 57, 3-[2-(2,3-dihydro-1-benzofuran-4-yl)-2-(1H-imidazol-4-yl)ethyl] pyridine] | > 500 |
| Cc1cccc([C@H](Cc2cccnc2)c2cnc[nH]2)c1C [Compound 58, 3-[(2S)-2-(2,3-dimethylphenyl)-2-(1H-imidazol-4-yl)ethyl] pyridine] | 50 to 500 |
| Cc1cccc([C@@H](Cc2cccnc2)c2cnc[nH]2)c1C [Compound 59, 3-[(2R)-2-(2,3-dimethylphenyl)-2-(1H-imidazol-4-yl)ethyl] pyridine] | < 10 |
| Cc1cccc([C@H](Cc2cccnc2)c2cnc[nH]2)c1Cl [Compound 60, 3-[(2S)-2-(2-chloro-3-methylphenyl)-2-(1H-imidazol-4-yl)ethyl] pyridine] | < 10 |
| Cc1cccc([C@@H](Cc2cccnc2)c2cnc[nH]2)c1Cl [Compound 61, 3-[(2R)-2-(2-chloro-3-methylphenyl)-2-(1H-imidazol-4-yl)ethyl]pyridine] | 50 to 500 |
| Cc1c(Cl)cccc1[C@H](Cc1cccnc1)c1cnc[nH]1 [Compound 62, 3-[(2S)-2-(3-chloro-2-methylphenyl)-2-(1H-imidazol-4-yl)ethyl]pyridine] | > 500 |
| Cc1c(Cl)cccc1[C@@H](Cc1cccnc1)c1cnc[nH]1 [Compound 63, 3-[(2R)-2-(3-chloro-2-methylphenyl)-2-(1H-imidazol-4-yl)ethyl]pyridine] | < 10 |
| Cc1cc(C[C@H](c2cnc[nH]2)c2cccc(C)c2C)n(C)n1 [Compound 68, 5-[(2S)-2-(2,3-dimethylphenyl)-2-(1H-imidazol-4-yl)ethyl]-1,3-dimethyl-1H-pyrazole] | > 500 |
| Cc1cc(C[C@@H](c2cnc[nH]2)c2cccc(C)c2C)n(C)n1 [Compound 69, 5-[(2R)-2-(2,3-dimethylphenyl)-2-(1H-imidazol-4-yl)ethyl]-1,3-dimethyl-1H-pyrazole] | < 10 |
| Cc1nccc(C[C@H](c2cnc[nH]2)c2cccc(C)c2C)n1 [Compound 70, 4-[(2S)-2-(2,3-dimethylphenyl)-2-(1H-imidazol-4-yl)ethyl]-2-methyl-pyrimidine] | < 10 |
| Cc1nccc(C[C@@H](c2cnc[nH]2)c2cccc(C)c2C)n1 [Compound 71, 4-[(2R)-2-(2,3-dimethylphenyl)-2-(1H-imidazol-4-yl)ethyl]-2-methyl-pyrimidine] | > 500 |
| Cc1cccc([C@H](Cc2ccnc(C(F)(F)F)n2)c2cnc[nH]2)c1C [Compound 72, 4-[(2S)-2-(2,3-dimethylphenyl)-2-(1H-imidazol-4-yl)ethyl]-2-(trifluoromethyl) pyrimidine] | < 10 |
| Cc1cccc([C@@H](Cc2ccnc(C(F)(F)F)n2)c2cnc[nH]2)c1C [Compound 73, 4-[(2R)-2-(2,3-dimethylphenyl)-2-(1H-imidazol-4-yl)ethyl]-2-(trifluoromethyl) pyrimidine] | > 500 |
| Cc1cnc(C[C@H](c2cnc[nH]2)c2cccc(C)c2C)nc1 [Compound 74, 2-[(2S)-2-(2,3-dimethylphenyl)-2-(1H-imidazol-4-yl)ethyl]-5-methyl-pyrimidine] | > 500 |
| Cc1cnc(C[C@@H](c2cnc[nH]2)c2cccc(C)c2C)nc1 [Compound 75, 2-[(2R)-2-(2,3-dimethylphenyl)-2-(1H-imidazol-4-yl)ethyl]-5-methylpyrimidine] | 50 to 500 |
| Cc1cccc([C@H](Cc2ccc(=O)[nH]n2)c2cnc[nH]2)c1C [Compound 76, 6-[(2S)-2-(2,3-dimethylphenyl)-2-(1H-imidazol-4-yl)ethyl]-2,3-dihydropyridazin-3-one] | > 500 |
| Cc1cccc([C@@H](Cc2ccc(=O)[nH]n2)c2cnc[nH]2)c1C [Compound 77, 6-[(2R)-2-(2,3-dimethylphenyl)-2-(1H-imidazol-4-yl)ethyl]-2,3-dihydropyridazin-3-one] | < 10 |
